Measured values reported in US9446053B2, “Method for enhancing the secretion of GLP-1 using bitter compounds” (priority 2013, dated 2016).
Where two headings read alike, the source gives them in different places.

Assays:
[1] = test system: intestinal endocrine cell line STC-1; experiment: Bitter compound stimulating the secretion of GLP-1 of STC-1 cells (GLP-1 ELISA normalised to MTT cell viability, vehicle = 1); type: cell-based, mouse; conditions: for fold induction at 1000 µM: 1 mM; for secretion of GLP-1, fold comparing to the vehicle group: p<0.05
Experimental: The embodiment of the present invention use a proglucagon-expression cell line STC-1 for study. The STC-1 cells are divided into the experimental groups and the control group. […] The secretion of GLP-1 is obtained by calculating the data gathered from the experiment using the standard curve after treating intestinal endocrine cell line STC-1 with different bitter compounds. Cell viability is measured by MTT assay after treating intestinal endocrine cell line STC-1 with different bitter compounds. The ratio of the amount of GLP-1 secreted to the cell viability in each experiment is the fold of that given bitter compound stimulating the secretion of GLP-1 of the intestinal endocrine cell line STC-1. […] Moreover, co-administering specific bitter compound, bitter taste receptor inhibitor or phospholipase C (PLC) inhibitor can further determine the bitter taste receptor corresponded to the bitter compound. The above mentioned testing methods are explained in detailed as follow:
For the embodiment of the ability of bitter compound stimulating secretion of GLP-1 of the intestinal endocrine cell line STC-1, the experiment procedure of the stimulation of GLP-1 secretion is referred in FIG. 1.
(§1) S3: The STC-1 cell line was treated by a bitter compound.
(§2) S4: Supernatant was collected via centrifugation and the remaining growth medium was removed after 1 hour and the amount of cell was measured by MTT assay.
S5: Supernatant from S4 was centrifuged again at 500×g for 5 minutes. After eliminating cell debris, the resulting supernatant was collected and stored at −80° C. for the analysis of GLP-1 secretion using commercial kit Millipore EGLP-35K. The sensitivity of the kit is between 2-100 pM. […] The result was shown in the amount of GLP-1 secreted per unit cell. To prevent over-discrepant results between batches and for the ease of statistic, each vehicle group was taken as 1, which is the comparison of result of each sample of that experiment.
(§3) Before measuring the amount of GLP-1 secreted, all reagents were placed on ice until fully dissolved. 10× washing buffer concentrate were diluted 10 times using distilled water; STC-1 cell line was dissolved using 1 mL distilled water and was diluted 200 times using phosphate buffered saline (PBS). 300 μL/well of 1× wash buffer were added and were placed for 5 minutes at room temperature then were poured out. 200 μL/well of assay buffer were added to NSB, while 100 μL/well of assay buffer were added to the remaining wells. 100 μL of Standards, QC or STC-1 cell line were then added to the wells accordingly, and then the 96-well plate was shaken moderately for an even mixture within each well. Plates were then being sealed allowing reaction to take place at 4° C. for 20-24 hours. Plates were then washed 5 times by 300 μL/well of 1× wash buffer and placed for 5 minutes. 200 μL/well of detection conjugate was added allowing reactions to take place at room temperature for 2 hours. It was then washed 3 times by 300 μL/well of 1× wash buffer. 200 μL/well of diluted STC-1 cell line was added allowing reaction to take place at room temperature and light-free environment for approximately 20 minutes. 50 μL/well of stop solution was added to stop the reaction at room temperature and light-free environment for 5 minutes. Finally, the concentration of GLP-1 was calculated using the data obtained and the standard curve.
Principle of MTT assay: Methylthiazolyldiphenyl-tetrazolium bromide (MTT), or 3-(4,5-cimethylthiazol-2-yl)-2,5-diphenyl tetrazolium bromide, is a yellow dye which can be reduced by dehydrogenase of mitochondria in living cells, forming an insoluble purple crystal, formazan. Thus, it is often used for the screening of the effect of materials upon the cell growth and proliferation.

[2] = test system: intestinal endocrine cell line STC-1; experiment: GLP-1 secretion of STC-1 cells when allyl isothiocyanate and bitter taste receptor inhibitor probenecid are co-administered; type: cell-based, mouse
Excerpt: The embodiment of the present invention use a proglucagon-expression cell line STC-1 for study. The STC-1 cells are divided into the experimental groups and the control group. The control groups are also called vehicle groups, which is the comparison of result of each experiment taken as 1. The secretion of GLP-1 is obtained by calculating the data gathered from the experiment using the standard curve after treating intestinal endocrine cell line STC-1 with different bitter compounds. Cell viability is measured by MTT assay after treating intestinal endocrine cell line STC-1 with different bitter compounds. The ratio of the amount of GLP-1 secreted to the cell viability in each experiment is the fold of that given bitter compound stimulating the secretion of GLP-1 of the intestinal endocrine cell line STC-1. By comparing experimental groups and vehicle groups, the difference between different bitter compounds in terms of their ability to stimulate the secretion of GLP-1 of the intestinal endocrine cell line STC-1 can be observed. Moreover, co-administering specific bitter compound, bitter taste receptor inhibitor or phospholipase C (PLC) inhibitor can further determine the bitter taste receptor corresponded to the bitter compound. The above mentioned testing methods are explained in detailed as follow:
S1: 6.39×10^4 cells were planted with 10% FBS DMEM (high glucose) in 48-well culture tray and were incubated for 48 hours.
S2: After 48 hours when the cell growth reached 85%, culture medium was changed into 10% FBS DMEM (low glucose) for a 3-hour starvation and then followed by the treatment of 0.2% BSA DEME (low glucose).
as §1, §2
S5: Supernatant from S4 was centrifuged again at 500×g for 5 minutes. After eliminating cell debris, the resulting supernatant was collected and stored at −80° C. for the analysis of GLP-1 secretion using commercial kit Millipore EGLP-35K. The sensitivity of the kit is between 2-100 pM. The amount of GLP-1 secreted of each vehicle group is between 50-150 pM according to the batch, therefore, it is advised that the supernatant being diluted 4 times before the analysis. The result was shown in the amount of GLP-1 secreted per unit cell. To prevent over-discrepant results between batches and for the ease of statistic, each vehicle group was taken as 1, which is the comparison of result of each sample of that experiment.
as §3, with “Finally, the concentration of GLP-1 was calculated using the data obtained and the standard curve.” left out

[3] = Mus musculus, STC-1 cells, 1 hour treatment, vehicle = 1, read-out: Fold (largest fold of GLP-1 secretion vs vehicle group)
[4] = Mus musculus, STC-1, 1 h, read-out: Fold (largest fold of GLP-1 secretion vs vehicle group)
[5] = STC-1 cells treated by 20 μg/mL
[6] = STC-1 cells treated by 50 μg/mL
[7] = STC-1 cells treated by 100 μg/mL
[8] = STC-1 cells treated by 200 μg/mL

CC1=CC(=O)[N-]S(=O)(=O)O1.[K+] [Acesulfame K, reference compound]
Fold (largest fold of GLP-1 secretion vs vehicle group) ([1]; STC-1 cells, 10 mM, 1 hour treatment, vehicle = 1): ↑1.90 fold

C=CCN=C=S [Allyl isothiocyanate]
fold induction at 10 µM ([1]; Mus musculus, STC-1 cells, 10 μM, 1 hour treatment, vehicle = 1, read-out: Fold (largest fold of GLP-1 secretion vs vehicle group)): 4.06
secretion of GLP-1 comparing to the vehicle groups (in words) ([1]; STC-1 cells, 1.0 μM, 2.0 μM, 5.0 μM and 10.0 μM, dose-dependent manner): significantly increase the secretion of GLP-1
Fold (largest fold of GLP-1 secretion vs vehicle group) ([1]; STC-1 cells, 10 μM, 1 hour treatment, vehicle = 1): ↑4.06 fold
secretion of GLP-1, fold of the vehicle group ([2]; 0.5 mM of probenecid jointly applied, first of three allyl isothiocyanate concentrations, p<0.001): 1.14 fold
secretion of GLP-1, fold of the vehicle group ([2]; 0.5 mM of probenecid jointly applied, second of three allyl isothiocyanate concentrations, p<0.001): 1.40 fold
secretion of GLP-1, fold of the vehicle group ([2]; 0.5 mM of probenecid jointly applied, third of three allyl isothiocyanate concentrations, p<0.001): 1.93 fold
secretion of GLP-1, fold of the vehicle group ([2]; 1.0 mM of probenecid jointly applied, first of three allyl isothiocyanate concentrations, p<0.001): 0.86 fold
secretion of GLP-1, fold of the vehicle group ([2]; 1.0 mM of probenecid jointly applied, second of three allyl isothiocyanate concentrations, p<0.001): 1.07 fold
secretion of GLP-1, fold of the vehicle group ([2]; 1.0 mM of probenecid jointly applied, third of three allyl isothiocyanate concentrations, p<0.001): 1.51 fold
secretion of GLP-1, fold of the vehicle group ([2]; allyl isothiocyanate solely applied, first of three concentrations, p<0.05): 1.44 fold
secretion of GLP-1, fold of the vehicle group ([2]; allyl isothiocyanate solely applied, second of three concentrations, p<0.05): 2.05 fold
secretion of GLP-1, fold of the vehicle group ([2]; allyl isothiocyanate solely applied, third of three concentrations, p<0.05): 3.44 fold

COc1cc2c(cc1OC)[C@@]13CCN4CC5=CCO[C@H]6CC(=O)N2[C@H]1[C@H]6[C@H]5C[C@H]43 [Brucine, reference compound]
fold induction at 50 µM ([1]; Mus musculus, STC-1 cells, 50 μM, 1 hour treatment, vehicle = 1, read-out: Fold (largest fold of GLP-1 secretion vs vehicle group)): 1.54

Cn1c(=O)c2c(ncn2C)n(C)c1=O [Caffeine, reference compound]
fold induction at 1000 µM [1, 3]: 1.72

CCN(CC)CCCC(C)Nc1ccnc2cc(Cl)ccc12 (stereo not shown) [Chloroquine, reference compound]
fold induction at 5 µM [1, 4]: 1.78

CC(C)=C/C=C/[C@@H](C)[C@H]1CC[C@@]2(C)c3ccc4c(c3CC[C@]12C)CC[C@H](O)C4(C)C [Compound of formula II, 19-nor-cucurbita-5(10),6,8,22(E),24-pentaen-3β-ol]
secretion of GLP-1, fold comparing to the vehicle group ([1]; STC-1 cells treated by 5 μg/mL): 1.66 fold
secretion of GLP-1, fold comparing to the vehicle group [1, 5]: 2.28 fold
secretion of GLP-1, fold comparing to the vehicle group [1, 6]: 4.53 fold
secretion of GLP-1, fold comparing to the vehicle group [1, 7]: 6.05 fold
secretion of GLP-1, fold comparing to the vehicle group [1, 8]: 6.16 fold

CC(C)=CC(O)C[C@@H](C)[C@H]1CC[C@@]2(C)[C@@H]3C=C[C@@]45OC[C@]3(CC[C@]12C)C4CC[C@H](O)C5(C)C (stereo partly drawn) [Compound of formula IV, 5β,19-epoxycucurbita-6,24-diene-3β,23ξ-diol]
secretion of GLP-1, fold comparing to the vehicle group ([1]; STC-1 cells treated by 5 μg/mL): 1.37 fold
secretion of GLP-1, fold comparing to the vehicle group [1, 5]: 1.49 fold
secretion of GLP-1, fold comparing to the vehicle group [1, 6]: 1.84 fold
secretion of GLP-1, fold comparing to the vehicle group [1, 7]: 2.76 fold
secretion of GLP-1, fold comparing to the vehicle group [1, 8]: 3.68 fold

CC[N+](CC)(CC(=O)Nc1c(C)cccc1C)Cc1ccccc1 [Denatonium benzoate, reference compound]
fold induction at 2500 µM ([1]; Mus musculus, STC-1 cells, 2.5 mM, 1 hour treatment, vehicle = 1, read-out: Fold (largest fold of GLP-1 secretion vs vehicle group)): 2.97

CC1(C)O[C@H]2CC(=O)OC[C@]23[C@H]2CC[C@@]4(C)[C@H](c5ccoc5)OC(=O)[C@H]5O[C@]54[C@]2(C)C(=O)C[C@@H]13 [Limonin, reference compound]
fold induction at 200 µM ([1]; Mus musculus, STC-1 cells, 200 μM, 1 hour treatment, vehicle = 1, read-out: Fold (largest fold of GLP-1 secretion vs vehicle group)): 1.22

C=C[C@H]1C[N@@]2CC[C@H]1C[C@H]2[C@H](O)c1ccnc2ccc(OC)cc12 [Quinine, reference compound]
fold induction at 80 µM ([1]; Mus musculus, STC-1 cells, 80 μM, 1 hour treatment, vehicle = 1, read-out: Fold (largest fold of GLP-1 secretion vs vehicle group)): 1.9

O=C1NS(=O)(=O)c2ccccc21 [Saccharin, reference compound]
fold induction at 1000 µM [1, 3]: 4.84

O=C1C[C@@H]2OCC=C3CN4CC[C@]56c7ccccc7N1[C@H]5[C@H]2[C@H]3C[C@H]46 [Strychnine, reference compound]
fold induction at 50 µM [1, 4]: 1.91
